The compounds below were run on lipoxygenase (assay: inhibition of lipoxygenase in vitro). Settings: 0.0001M.
Type: biochemical
Text: For example, in tests in vitro at concentrations of 0.0001M, a compound of formula I inhibited lipoxygenase by the percentage shown in the following Table III.

`CCOC(=O)C(=CNc1ncccc1C)C(=O)OCC` [Compound AM, 1,1-bis(ethoxycarbonyl)-2-(3-methylpyrid-2-ylamino)ethene] was tested, and the “% inhibition of lipoxygenase” value was 62%.

The compounds below were run on mouse macrophage cells (assay: reduction by 50% of inhibition of migration of incubated mouse macrophage cells (antagonism or reduction of lymphokine levels)). Settings: po, twice: one hour before and four hours after antigen, each time at the dose shown, mice.
Type: in vivo
Protocol: For example, from tests in mice it was calculated that compounds of formula I, when twice administered orally, one hour before and four hours after the administration of antigen, each time at the doses shown in the following Table I, would reduce by 50% the inhibition of migration of incubated mouse macrophage cells measured in a manner similar to that described by Likhite et al, Cellular Immunology, Vol 5, 1972, page 377. This is a measure of antagonism or reduction of the levels of lymphokines and is indicative of utility in the treatment of arthritic patients.

`O=S(=O)(C(=CNCc1ccccn1)S(=O)(=O)c1ccc(Cl)cc1)c1ccc(Cl)cc1` [W, 1,1-bis(4-chlorophenylsulphonyl)-2-(pyrid-2-ylmethylamino)ethene] and `O=S(=O)(C(=CNCc1ccccc1)S(=O)(=O)c1ccc(Cl)cc1)c1ccc(Cl)cc1` [V, 2-benzylamino-1,1-bis(4-chlorophenylsulphonyl)ethene] cannot be ordered by ED50: less than 10 mg/kg for the first, less than 10 mg/kg for the second.

First: Cc1cc(NC=C(S(=O)(=O)c2ccccc2)S(=O)(=O)c2ccccc2)nc(C)n1 [H, 1-(2,6-dimethylpyrimidin-4-ylamino)-2,2-bis(phenylsulphonyl)ethene]
Second: O=S(=O)(C(=CNc1nccs1)S(=O)(=O)c1ccccc1)c1ccccc1 [Compound A, 1,1-bis(phenylsulphonyl)-2-(thiazol-2-ylamino)ethene]
The ED50 of the first is lower: less than 10 mg/kg for the first, 10 mg/kg for the second.

`O=S(=O)(C(=CNc1ccccc1)S(=O)(=O)c1ccccc1)c1ccccc1` [Z, 1-phenylamino-2,2-bis(phenylsulphonyl)ethene] and `O=S(=O)(C(=CNc1nccnn1)S(=O)(=O)c1ccccc1)c1ccccc1` [C, 1,1-bis(phenylsulphonyl)-2-(1,2,4-triazin-3-ylamino)ethene] are the same in ED50: 2 mg/kg for the first, 2 mg/kg for the second.

Going from `Cc1cc(C)nc(NC=CC=O)c1` [AI, 1-formyl-2-(4,6-dimethylpyrid-2-ylamino)ethene] to `CS(=O)(=O)C(C#N)=CNc1ccc(Br)cn1` [N, 2-(5-bromopyrid-2-ylamino)-1-cyano-1-methylsulphonylethene], the ED50 rises from 5.2 mg/kg to 28 mg/kg (5.4-fold).

Compared with `Cn1cc(C(N)=O)ccc1=NC=C(S(=O)(=O)c1ccccc1)S(=O)(=O)c1ccccc1` [AP, 2-[2,2-bis(phenylsulphonyl)ethen-1-ylimino]-5-carbamoyl-1-methylpyridine], `CC(=O)C(=CNc1ccc(Br)cn1)S(=O)(=O)c1ccccc1` [O, 1-acetyl-2-(5-bromopyrid-2-ylamino)-1-phenylsulphonylethene] is higher in ED50: less than 10 mg/kg for the first, 14 mg/kg for the second.

`O=[N+]([O-])c1ccc(N(C=CS(=O)(=O)c2ccccc2)c2ccc(Br)cn2)cc1` [Compound BE, 1-[N-(5-bromopyrid-2-yl)-N-(4-nitrophenyl)]amino-2-phenylsulphonylethene] gave an ED50 of 4.4 mg/kg.

What follows are compounds tested on delayed-type hypersensitivity (Type IV hypersensitivity reaction), foot pad swelling (assay: delayed-type hypersensitivity (DTH) test, foot pad swelling). Settings: mice, dose 10 mg/kg animal body weight.
Type: in vivo
Text: Compounds of formula I were also submitted to the delayed-type hypersensitivity (DTH) test, which is an in-vivo model of cellular immunity (Type IV hypersensitivity reaction) which is suppressed by antirheumatic drugs. Previously sensitised mice receive antigen challenge (using methylated bovine serum albumen) by foot pad injection and the resulting foot pad swelling is compared in control animals and animals treated with compounds of formula I.

Going from `O=S(=O)(C(=CNc1ccc2ccccc2n1)S(=O)(=O)c1ccccc1)c1ccccc1` [G, 1,1-bis(phenylsulphonyl)-2-(quinol-2-ylamino)ethene] to `O=S(=O)(C(=CNc1cnc2ccccc2c1)S(=O)(=O)c1ccccc1)c1ccccc1` [E, 1,1-bis(phenylsulphonyl)-2-(quinol-3-ylamino)ethene], the “% inhibition” value rises from 30% to 38%.

Same assay, conditions: mice, dose 40 mg/kg animal body weight

In the case of `NC(=O)c1cnc(NC=C(S(=O)(=O)c2ccccc2)S(=O)(=O)c2ccccc2)cn1` [I, 1-(5-carbamoylpyrazin-2-ylamino)-2,2-bis(phenylsulphonyl)ethene], the “% inhibition” value is reported as 30%.

Same assay, conditions: mice, dose 50 mg/kg animal body weight

Compared with `O=S(=O)(C(=CNc1nc2ccccc2s1)S(=O)(=O)c1ccccc1)c1ccccc1` [D, 1-(benzothiazol-2-ylamino)-2,2-bis(phenylsulphonyl)ethene], `O=S(=O)(C(=CNc1ccc2ccccc2n1)S(=O)(=O)c1ccccc1)c1ccccc1` [G, 1,1-bis(phenylsulphonyl)-2-(quinol-2-ylamino)ethene] is lower in “% inhibition” value: 27% for the first, 24% for the second.

With `O=S(=O)(C(=CNc1cnc2ccccc2c1)S(=O)(=O)c1ccccc1)c1ccccc1` [E, 1,1-bis(phenylsulphonyl)-2-(quinol-3-ylamino)ethene] the “% inhibition” value was 15%.

From US4659727A, “Ethene derivatives” (May & Baker Limited, priority 1984, dated 1987)
